Measurements taken from US6046231A, “Use of 4'-bromoflavone in a cancer chemopreventative composition and method” (The Board of Trustees of the University of Illinois, priority 1999, dated 2000).
pIC50: −log10 of the molar value.

Assays:
[1] = test system: quinone reductase (QR), Hepa 1c1c7 cells; assay: Quinone reductase (QR) induction in Hepa 1c1c7 cells; type: cell-based, murine
Text: This test was used because the specific activity of QR rises concomitantly with other phase II enzymes in many animal tissues in response to various chemopreventive agents. The study included natural and synthetic B-ring substituted flavones, as well as biosynthetic precursor chalcones and flavanones.
Determination of Quinone Reductase Activity in Cell Cultures. To determine the potency of inducers, Hepa 1c1c7 murine hepatoma cells as described in the Gerhauser publication were placed in 96-well plates at a density of 1×10^4 cells/ml in 200 μl of medium. After a preincubation period of 24 hr, the media were decanted and 190 μl fresh media were added to each well. Ten (10) μl test agents dissolved in 10% DMSO (final concentration of DMSO is 0.5%) with a serial 2-fold dilutions were introduced to each well, and the plates were incubated for an additional 48 hours. Specific QR activity was determined by measuring the NADPH-dependent menadiol-mediated reduction of 3-(4, 5-dimethylthiazo-2-yl)-2,5-diphenyltetrazolium bromide to blue formazan formed per mg protein per minute. Protein was determined in an identical set of test plates by staining with crystal violet. Hepa 1c1c7 cells retain many characteristics of normal issues, particularly the capacity for carcinogen activation and metabolism. They are amenable to precise control of environmental, nutritional, and hormonal factors. […] Induction of QR activity was calculated by comparing the QR specific activity of agent-treated cells with that of solvent-treated cells, and a plot of ratio was generated. CD represents the concentration required to double QR induction. Chemopreventive index (CI) is an indexing value generated by comparing CD with IC50 (concentration for 50% inhibition of cell viability) values.
Induction of Quinone Reductase in Hepa 1c1c7 Cells. […] Modification of the B-ring of chalcones, flavanones, and flavones was hypothesized to induce torsion of the B-ring, and, therefor, simulate out-of-plane distortions characteristic of polycyclic aromatic hydrocarbons, such as DMBA. Induction of QR activity was calculated by comparing the QR specific activity of agent-treated cells with the QR specific activity of solvent-treated cells, and a plot of ratios was generated. CD represents the concentration required for a double fold of induction. CI (Chemopreventive Index) is a value obtained by comparing CD with IC50 (concentration for 50% inhibition of cell viability in […]).

[2] = test system: GST Ya (α class); assay: Western blot of GST Ya (α-type) expression in H4IIE cells; type: cell-based, rat; conditions: for GST Ya (α) induction: H4IIE cells
Experimental: Western Blot Analysis Glutathione S-transferase Expression. Cultured H4IIE rat hepatoma cells were treated with test agent with various concentrations or various time points. […] Cells were harvested using SDS lysis buffer (20 mM Tris-Cl, pH 6.8, containing 0.4% SDS (w/v), 4% glycerol, 0.24 M β-mercaptoethanol, and 0.5% bromphenol) and the lysates were boiled for 5 minutes, then stored at -20° C. An aliquot of lysate was used for protein determination using a bicichoninic acid protein assay kit with BSA as a standard. Equivalent amounts of protein were electrophoresed by SDS-PAGE on precast 12.5% Tris-glycine acrylamide gels (Novex, San Diego, Calif.), then transferred to polyvinylidene difluoride (PDVF) membranes. Nonspecific binding sites were blocked with 10% nonfat dry milk and blotting was performed with goat polyclonal antirat GSTYa (α class) IgG or antirat, GSTYb (μ class) IgG and analyzed by alkaline phosphatase-conjugated antigoat IgG secondary antibody (Oxford Biomed Research, Inc.) and quantified using an AP 20 Alkaline Phosphatase Kit detection system (Oxford Biomed Research, Inc.).
Induction of Expression of Glutathione S-transferase Ya (α-type) and Yb (μ-type) in Cell Cultures. […] To date, the superfamily of mammalian cytosolic GST isozymes has been defined genetically to consist of four classes; α, μ, π, and θ, which differ in tissue-specificexpression and distribution, as well as substrate specificity. […] Cultured H4IIE cells were treated either with 10 μM of 4'-BF (FIG. 7B) or sulforaphane for 0, 2, 4, 8, 16, 24, and 48 hours for a time-dependent study, or with 0.16, 0.8, 4, 10, 20, and 50 μM of 4'-BF (FIG. 7A) or sulforaphane for 24 hr for a dose-dependent study (FIG. 7A). The expressions of two major detoxification isoforms of GSTs (GST Ya: α-type, and GST Yb: μ-type) mediated by 4'-BF or sulforaphane were investigated in H4EII rat hepatoma cells using Western blotting technique.

[3] = target: T1, cytochrome P4501A1 (Rattus norvegicus, UniProt P00185); assay: biochemical
T1 sequence (P00185 1-524): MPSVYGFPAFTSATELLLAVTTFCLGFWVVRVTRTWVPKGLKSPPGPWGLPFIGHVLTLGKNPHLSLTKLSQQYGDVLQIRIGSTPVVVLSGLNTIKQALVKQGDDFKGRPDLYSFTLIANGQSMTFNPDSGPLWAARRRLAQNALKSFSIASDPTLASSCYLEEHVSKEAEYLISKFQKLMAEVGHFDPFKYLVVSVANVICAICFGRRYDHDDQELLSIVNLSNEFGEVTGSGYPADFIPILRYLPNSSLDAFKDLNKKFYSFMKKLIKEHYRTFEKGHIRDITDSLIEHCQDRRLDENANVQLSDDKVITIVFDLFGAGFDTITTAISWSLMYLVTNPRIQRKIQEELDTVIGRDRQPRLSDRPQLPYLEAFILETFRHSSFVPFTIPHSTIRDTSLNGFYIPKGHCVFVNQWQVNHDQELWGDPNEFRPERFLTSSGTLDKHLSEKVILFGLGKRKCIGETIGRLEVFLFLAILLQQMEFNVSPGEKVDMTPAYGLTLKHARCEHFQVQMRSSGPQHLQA
Experimental: Inhibition of DMBA-induced Cytochrome P4501A1 Activity. Female Sprague Dawley rats (43 days of age) were treated with DMBA (i.g.), and liver microsomes were isolated through differential centrifugation. Cytochrome P4501A1 activity was monitored by assessing EROD activity. Briefly, 200 μl of microsomal protein (2 mg/ml) were added to a reaction mixture containing 640 μl of 0.05 M Tris-HCl buffer (pH 7.5), 100 μl of BSA (10 mg/ml in Tris buffer), 20 μl of 0.25 M MgCl2, 40 μl of cofactor solution (0.3282 g of NADP and 1.417 g of glucose 6-phosphate in 40 ml of 1.15% KCl), 2.5 units of glucose 6-phosphate dehydrogenase, 10 μl of substrate (1 mg of ethoxyresorufin in 10 ml of methanol) and 10 μl of various concentrations of 4'-BF in DMSO (α-naphthoflavone as positive control; DMSO as negative control). After incubating at 37° C. for 4 min, the reactions were terminated by the addition of 2 ml of methanol. Samples were then centrifuged for 20 min at 2,000×g. and 200 μl of the supernatant fractions were transferred to 96-well plates and read on a spectrofluorimeter (500 nm excitation and 585 nm emission). Assays were conducted in triplicate and the percent of inhibition was calculated as: [1-(sample A-blank)/(DMSO A-blank)]×100.

O=c1cc(-c2ccc(Br)cc2)oc2ccccc12 [4'-Bromoflavone]
Cq ([1]; Hepa 1c1c7 cells): 0.15 µM | CI, chemoprevention index (IC50/CD) ([1]; IC50/CD, 2880 min): > 17000 | EC (2-fold) ([1]; Mus musculus, Hepa-1c1c7, 48 h, Hepa 1c1c7 cells, 48 h, read-out: CD, concentration to double the specific activity of QR): 0.01 µM | times more active than sulforaphane ([1]; compared to sulforaphane): about 40 times | maximum induction time, GST Ya ([2]; 10 μM, 0-48 h): 16 to 24 h | maximum induction concentration, GST Ya ([2]; 0.16-50 μM, 24 h): 10 to 20 µM | GST Ya (α) induction [2]: effectively induced | GST Ya (α) induction ([2]; listed as 4'-BF): induced by 4'-BF in a time, dose-dependent manner | pIC50 [3]: 6.07
